Data as given in patent publication US8673911B2, “Inhibitors of histone deacetylase” (MethylGene Inc., priority 2007, dated 2014).

What follows are compounds tested against one or more of HDAC4, HDAC5, HDAC6, HDAC7, HDAC8, HDAC9 and HDAC11 (assay: Inhibition of histone deacetylase enzymatic activity (fluorogenic Boc-Lys(Ac)-AMC / Boc-Lys(trifluoroacetyl)-AMC substrate)). Conditions: against one or more of HDAC4, HDAC5, HDAC6, HDAC7, HDAC8, HDAC9 and HDAC11.
Assay type: biochemical
Experimental: Inhibition of HDAC-1,2,3,6 and 8
The following protocol is used to assay the compounds of the invention. In the assay, the buffer used is 25 mM HEPES, pH 8.0, 137 mM NaCl, 2.7 mM KCl, 1 mM MgCl2 and the substrate is Boc-Lys(Ac)-AMC in a 50 mM stock solution in DMSO. The enzyme stock solution is 4.08 μg/mL in buffer.
The compounds are pre-incubated (2 μl, in DMSO diluted to […] in buffer for transfer to assay plate) with enzyme (20 μL of 4.08 μg/mL) for 10 minutes at room temperature (35 μL pre-incubation volume). The mixture is pre-incubated for 5 minutes at room temperature. The reaction is started by bringing the temperature to 37° C. and adding 15 μL substrate. Total reaction volume is 50 μL. The reaction is stopped after 20 minutes by addition of 50 μL developer, prepared as directed by Biomol (FLUOR DE LYS™ developer, Cat. # KI-105). A plate is incubated in the dark for 10 minutes at room temperature before reading (λEx=360 nm, λEm=470 nm, Cutoff filter at 435 nm).
Inhibition of Class II HDAC and HDAC-11
A 30 mM stock of Boc-Lys(trifluoroacetyl)-AMC substrate is prepared in DMSO. 2 μL test compound in DMSO is diluted to 50 μL in buffer (25 mM HEPES, pH 8.0, 137 mM NaCl, 2.7 mM KCl, 1 mM MgCl2, 0.1% BSA) and pre-incubated with HDAC enzyme (30 μL of a final enzyme concentration of 0.1-0.2 nM) for 10 minutes at room temperature. Reaction is started by adding 18 μL Boc-Lys(trifluoroacetyl)-AMC substrate and incubating at 37° C. for 20-30 minutes. The reaction is stopped by adding 50 μL trypsin (1 mg/mL) and a known HDAC inhibitor. The plate is then incubated in the dark for 20 minutes at room temperature and read with Ex=360 nm, Em=470 nm, cutoff filter at 435 nm.

| SMILES | IC50 [nM] |
| --- | --- |
| O=C(NO)c1ccccc1-n1cccc1 [Compound 21, N-hydroxy-2-(lH-pyrrol-1-yl)benzamide] | 750 to 5000 |
| O=C(NO)c1sc(-c2ccccc2)cc1-c1ccccc1 [Compound 86, N-hydroxy-3,5-diphenylthiophene-2-carboxamide] | < 250 |
| O=C(Nc1ccccc1Oc1ccccc1)c1ccc(C(=O)NO)c(-c2ccccc2)c1 [compound 105] | 500 to 750 |
| O=C(NO)c1cn(-c2ccccc2)nc1-c1ccccc1 [Compound 32, N-hydroxy-1,3-diphenyl-1H-pyrazole-4-carboxamidc] | 500 to 750 |
| COc1ccc(S(=O)(=O)Nc2ccc3sc(C(=O)NO)c(-c4ccccc4)c3c2)cc1 [Compound 154, N-hydroxy-5-(4-methoxyphenyl-sulfonamido)-3-phenylbenzo[b] thiophene-2-carboxamide] | 500 to 750 |
| O=C(NO)c1sc2ccc(NS(=O)(=O)c3cccs3)cc2c1-c1ccccc1 [Compound 160] | 250 to 500 |
| O=C(NO)c1sc(C2CCN(C(=O)N3CCCC3)CC2)nc1-c1ccccc1 [Compound 145, N-hydroxy-4-phenyl-2-(1-(pyrrolidine-1-carbonyl)piperidin-4-yl)thiazole-5-carboxamide] | < 250 |
| O=C(NO)c1ccc(CN2C(=O)c3ccccc3Oc3ccccc32)cc1-c1ccccc1 [Compound 162, N-hydroxy-5-((11-oxodibenzo[b,f] [1,4]oxazepin-10(11H)-yl)methyl)biphenyl-2-carboxamide] | < 250 |
| CCOC(=O)N1CCC(c2nc(-c3ccccc3)c(C(=O)NO)s2)CC1 [Compound 147, ethyl 4-(5-(hydroxycarbamoyl)-4-phenylthiazol-2-yl)piperidine-1-carboxylate] | < 250 |
| O=C(NO)c1ccccc1-c1cccc(F)c1 [Compound 27, 3′-fluoro-N-hydroxybiphenyl-2-carboxamide] | 750 to 5000 |
| O=C(NO)c1sc(-c2ccc3c(c2)CCO3)nc1-c1ccccc1 [Compound 139, 2-(2,3-dihydrobenzofuran-5-yl)-N-hydroxy-4-phenylthiazole-5-carboxamide] | 750 to 5000 |
| CC(=O)Nc1ccc(S(=O)(=O)N2CCC(c3nc(-c4ccccc4)c(C(=O)NO)s3)CC2)cc1 [Compound 158, 2-(1-(4-acetamidophenyl-sulfonyl)piperidin-4-yl)-N-hydroxy-4-phenylthiazole-5-carboxamide] | < 250 |
| O=C(NO)c1sc(-c2ccccc2)cc1-c1ccccc1 [Compound 89, N-hydroxy-3,5-diphenylthiophene-2-carboxamide] | 250 to 500 |
| Cc1cscc1-c1cccc(-c2ccccc2C(=O)NO)c1 [Compound 29, N-hydroxy-3′-(4-methyl-thiophen-3-yl) biphcnyl-2-carboxamidc] | 500 to 750 |
| O=C(NO)c1cnc(-c2ccccc2)nc1-c1cccc(F)c1 [Compound 143, 4-(3-fluorophenyl)-N-hydroxy-2-phenylpyrimidine-5-carboxamide] | 250 to 500 |
| O=C(NO)c1sc(C2CCN(C(=O)c3ccccc3)CC2)nc1-c1ccccc1 [Compound 133, 2-(1-benzoylpiperidin-4-yl)-N-hydroxy-4-phenylthiazole-5-carboxamide] | < 250 |
| CS(=O)(=O)N1CCC(c2nc(-c3ccccc3)c(C(=O)NO)s2)CC1 [Compound 148, N-hydroxy-2-(1-(methylsulfonyl)piperidin-4-yl)-4-phenylthiazole-5-carboxamide] | < 250 |
| O=C(NCc1ccccc1)OCc1cc(-c2ccccc2)c(C(=O)NO)s1 [Compound 180, (5-(hydroxycarbamoyl)-4-phenylthiophen-2-yl)methyl benzylcarbamate] | < 250 |
| O=C(NO)c1ccc(-c2ccccc2)cc1-c1ccccc1 [Compound 52] | < 250 |
| O=C(NO)c1ccccc1-c1cccc(-c2ccccc2)c1 [Compound 13] | 750 to 5000 |
| O=C(Cc1ccc(C(F)(F)F)cc1)Nc1ccc(C(=O)NO)c(-c2ccccc2)c1 [Compound 155, N-hydroxy-5-(2-(4-(trifluoromethyl)phenyl)acetamido) biphenyl-2-carboxamide] | < 250 |
| CN(Cc1ccccc1)C(=O)OCc1cc(-c2ccccc2)c(C(=O)NO)s1 [Compound 181, (5-(hydroxycarbamoyl)-4-phenylthiophen-2-yl)methyl benzyl(methyl)carbamate] | < 250 |

| SMILES | IC50 [nM] |
| --- | --- |
| O=C(NO)c1sc(-c2ccncc2)nc1-c1ccccc1 [Compound 122, N-hydroxy-4-phenyl-2-(pyridin-4-yl)thiazole-5-carboxamide] | < 250 |
| O=C(NO)c1sc(C2CCN(CCc3c[nH]c4ccccc34)CC2)nc1-c1ccccc1 [Compound 152, 2-(1-(2-(1H-indol-3-yl)ethyl)piperidin-4-yl)-N-hydroxy-4-phenylthiazole-5-carboxamide] | < 250 |
| O=C(NO)c1sc(-c2csc3ccccc23)nc1-c1ccccc1 [Compound 110, 2-(benzo[b]thiophen-3-yl)-N-hydroxy-4-phenylthiazole-5-carboxamide] | < 250 |
| O=C(NO)c1sc(-c2cccs2)nc1-c1ccccc1 [Compound 140, N-hydroxy-4-phenyl-2-(thiophen-2-yl)thiazole-5-carboxamide] | 500 to 750 |
| O=C(NO)c1sc(-c2ccccc2)nc1-c1ccccc1 [Compound 74, N-hydroxy-2,4-diphenylthiazole-5-carboxamide] | < 250 |
| O=C(NO)c1sc2ccc(NS(=O)(=O)Cc3ccccc3)cc2c1-c1ccccc1 [Compound 157, N-hydroxy-3-phenyl-5-(phenylmethyl-sulfonamido) benzo[b]thiophene-2-carboxamide] | < 250 |
| O=C(NO)c1sc(COc2ccccc2)cc1-c1ccccc1 [Compound 125, N-hydroxy-5-(phenoxymethyl)-3-phenylthiophene-2-carboxamide] | < 250 |
| O=C(NO)c1sc(C2CCN(Cc3ccccc3)CC2)nc1-c1ccccc1 [Compound 132, 2-(1-benzylpiperidin-4-yl)-N-hydroxy-4-phenylthiazole-5-carboxamide] | < 250 |
| COc1cccc(-c2ccc(C(=O)NO)c(-c3cccc(OC)c3)c2)c1 [Compound 50] | 750 to 5000 |
| COc1cccc(-c2cc(C)ccc2C(=O)NO)c1 [Compound 33, N-hydroxy-3′-methoxy-5-mcthylbiphenyl-2-carboxamide] | 500 to 750 |
| CN(Cc1ccccc1)Cc1cc(-c2ccccc2)c(C(=O)NO)s1 [Compound 182, 5-((benzyl(methyl)amino)methyl)-N-hydroxy-3-phenylthiophene-2-carboxamide] | < 250 |
| O=C(NO)c1sc(Cc2ccccc2)cc1-c1ccccc1 [Compound 130, 5-benzyl-N-hydroxy-3-phenylthiophene-2-carboxamide] | < 250 |
| COc1ccc(-c2nc(-c3ccc(F)cc3)c(C(=O)NO)s2)cc1 [Compound 80, 4-(4-fluorophenyl)-N-hydroxy-2-(4-methoxyphenyl)thiazole-5-carboxamide] | < 250 |
| O=C(NO)c1sc2ccc(NS(=O)(=O)c3ccccc3)cc2c1-c1ccccc1 [Compound 126, N-hydroxy-3-phenyl-5-(phenylsulfonamido) benzo[b] thiophene-2-carboxamide] | 500 to 750 |
| O=C(NO)c1sc(-c2ccccc2)cc1-c1ccccc1 [Compound 92, N-hydroxy-3,5-diphenylthiophene-2-carboxamide] | < 250 |
| O=C(NO)c1sc(-c2ccccn2)nc1-c1ccccc1 [Compound 153, N-hydroxy-4-phenyl-2-(pyridin-2-yl)thiazole-5-carboxamide] | 250 to 500 |
| CN(C)c1ccc(-c2ccc(C(=O)NO)c(-c3ccccc3)c2)cc1 [Compound 116, 5-(4-dimethylamino-phenyl)-N-hydroxybiphenyl-2-carboxamide] | < 250 |
| O=C(NO)c1sc(-c2ccc(N3CCOCC3)cc2)nc1-c1ccccc1 [Compound 109, N-hydroxy-2-(4-morpholino-phenyl)-4-phenylthiazole-5-carboxamide] | < 250 |
| O=C(NO)c1sc(C2CCN(S(=O)(=O)c3ccccc3)CC2)nc1-c1ccccc1 [Compound 151, N-hydroxy-4-phenyl-2-(1-(phenylsulfonyl)piperidin-4-yl)thiazole-5-carboxamide] | < 250 |
| O=C(Nc1ccc2sc(C(=O)NO)c(-c3ccccc3)c2c1)OCc1ccccc1 [Compound 131, benzyl 2-(hydroxycarbamoyl)-3-phenylbenzo[b] thiophen-5-ylcarbamate] | 500 to 750 |
| Cc1cscc1-c1ccccc1C(=O)NO [Compound 24, N-hydroxy-2-(4-mcthylthiophen-3-yl)benzamide] | 750 to 5000 |
| O=C(NO)c1cn(Cc2ccccc2)nc1-c1ccccc1 [Compound 106, 1-benzyl-N-hydroxy-3-phenyl 1H-pyrazole-4-carboxamide] | 250 to 500 |
